For the test, the system named is YAP-TEAD. Nature of the test: TEAD inhibition, Hippo Pathway TEAD Reporter MCF-7 luciferase assay. Type of test: cell-based. The note with it: Homo sapiens, MCF7, 24 h, Hippo Pathway TEAD Reporter MCF-7 cells, luciferase activity after 24 h; read-out: IC50 of the test compounds on YAP-TEAD inhibition (Group). The essentials: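 IC50 derived from ONE-Glo luciferase luminescence after 24 h compound exposure (11 concentrations in quadruplicate, 0.1% DMSO control). Reporter: MCF-7 line expressing firefly luciferase under TEAD elements, constitutively activated by nuclear YAP1.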
By IC50 is commonly meant the concentration at which inhibition is half-maximal. For the compound `COc1ccc(Oc2ccc(C(F)(F)F)cn2)cc1NC(=O)C1CCC(=O)N1C` (stereo not shown) [Compound 276, N-(2-methoxy-5-((5-(trifluoromethyl)pyridin-2-yl)oxy)phenyl)-1-methyl-5-oxopyrrolidine-2-carboxamide], the half-maximal inhibitory concentration (IC50) is under 50 nM.
The value for `COc1cc(NC(=O)C2CCC(=O)N2C)cc(Oc2ccc(C(F)(F)F)cn2)c1` (stereo not shown) [Compound 277, N-(3-Methoxy-5-((5-(trifluoromethyl)pyridin-2-yl)oxy)phenyl)-1-methyl-5-oxopyrrolidine-2-carboxamide] was 50 to 300 nM.
With `COc1cc(NC(=O)[C@H]2CCC(=O)N2C)cc(Oc2ccc(C(F)(F)F)cc2)c1` [Compound 278, (R)—N-(3-Methoxy-5-(4-(trifluoromethyl)phenoxy)phenyl)-1-methyl-5-oxo-pyrrolidine-2-carboxamide] the figure was under 50 nM; with `COc1cc(NC(=O)C2CCC(=O)N2C)cc(Oc2ccc(C(F)(F)F)cc2)c1` (stereo not shown) [Compound 279, N-(3-Methoxy-5-(4-(trifluoromethyl)phenoxy)phenyl)-1-methyl-5-oxo-pyrrolidine-2-carboxamide], under 50 nM.
The value for `CN1C(=O)CC[C@@H]1C(=O)Nc1cc(Oc2ccc(C(F)(F)F)cn2)cc2cccnc12` [Compound 281, (R)-1-Methyl-5-oxo-N-(6-((5-(trifluoromethyl)pyridin-2-yl)oxy)quinolin-8-yl)pyrrolidine-2-carboxamide] was 50 to 300 nM; that for `COc1cc(NC(=O)[C@H]2CCC(=O)N2C)cc(OC2CCC(C(F)(F)F)CC2)c1` (stereo partly shown) [Compound 282] was under 50 nM.
Regarding `COc1ccc(Oc2ccc(C(F)(F)F)cn2)cc1NC(=O)[C@H]1CCC(=O)N1C` [Compound 283, (R)—N-(2-Methoxy-5-((5-(trifluoromethyl)pyridin-2-yl)oxy)phenyl)-1-methyl-5-oxopyrrolidine-2-carboxamide], the concentration for half-maximal inhibition (IC50) was under 50 nM.
The value for `COc1cc(NC(=O)C2CCC(=O)N2C)cc(Oc2ccc(F)c(F)c2)c1` (stereo not shown) [Compound 284, N-(3-(3,4-Difluorophenoxy)-5-methoxyphenyl)-1-methyl-5-oxopyrrolidine-2-carboxamide] was 50 to 300 nM.
The value for `COc1cc(NC(=O)[C@H]2CCC(=O)N2C)cc(Oc2ccc(F)c(F)c2)c1` [Compound 285, (R)—N-(3-(3,4-Difluorophenoxy)-5-methoxyphenyl)-1-methyl-5-oxopyrrolidine-2-carboxamide] was 50 to 300 nM; that for `COc1ccc(OC2CCCCC2)cc1NC(=O)C1CCC(=O)N1C` (stereo not shown) [Compound 286, N-(5-(Cyclohexyloxy)-2-methoxyphenyl)-1-methyl-5-oxopyrrolidine-2-carboxamide] was 50 to 300 nM; that for `COc1ccc(OC2C=CCCC2)cc1NC(=O)C1CCC(=O)N1C` (stereo not shown) [Compound 287, N-(5-(Cyclohex-2-en-1-yloxy)-2-methoxyphenyl)-1-methyl-5-oxopyrrolidine-2-carboxamide] was 301 to 2000 nM.
For the compound `COc1ccc(Oc2ccc(Cl)cn2)cc1NC(=O)[C@@H]1CCC(=O)N1C` [Compound 288, (S)—N-(5-((5-Chloropyridin-2-yl)oxy)-2-methoxyphenyl)-1-methyl-5-oxo-pyrrolidine-2-carboxamide], the IC50 lay within 50 to 300 nM.
With `COc1ccc(Oc2cccc(C(F)(F)F)c2)cc1NC(=O)C1CN(C(C)=O)C1` [Compound 289, 1-Acetyl-N-(2-methoxy-5-(3-(trifluoromethyl)phenoxy)phenyl)azetidine-3-carboxamide] the figure was 301 to 2000 nM; with `COc1ccc(Oc2ccc(OC(F)(F)F)cc2)cc1NC(=O)[C@H]1CCC(=O)N1C` [Compound 290, (R)—N-(2-methoxy-5-(4-(trifluoromethoxy)phenoxy)phenyl)-1-methyl-5-oxopyrrolidine-2-carboxamide], under 50 nM.
The value for `COc1ccc(Oc2cccc(OC(F)(F)F)c2)cc1NC(=O)C1CCC(=O)N1C` (stereo not shown) [Compound 291, N-(2-methoxy-5-(3-(trifluoromethoxy)phenoxy)phenyl)-1-methyl-5-oxo-pyrrolidine-2-carboxamide] was 50 to 300 nM; that for `COc1ccc(Oc2ccc(C(F)F)cc2)cc1NC(=O)C1CCC(=O)N1C` (stereo not shown) [Compound 292, N-(5-(4-(Difluoromethyl)phenoxy)-2-methoxyphenyl)-1-methyl-5-oxo-pyrrolidine-2-carboxamide] was under 50 nM; that for `COc1cc(Oc2ccc(OC)c(NC(=O)[C@H]3CCC(=O)N3C)c2)ccc1F` [Compound 293, (R)—N-(5-(4-Fluoro-3-methoxyphenoxy)-2-methoxyphenyl)-1-methyl-5-oxo-pyrrolidine-2-carboxamide] was 50 to 300 nM.
With `COc1ccc(OCC2CCCCC2)cc1NC(=O)C1CCC(=O)N1C` (stereo not shown) [Compound 294, N-(5-(Cyclohexylmethoxy)-2-methoxyphenyl)-1-methyl-5-oxopyrrolidine-2-carboxamide] the figure was under 50 nM.
In the case of `COc1ccc(Oc2ccc(OC)c(NC(=O)C3CCC(=O)N3C)c2)cc1F` (stereo not shown) [Compound 295, N-(5-(3-Fluoro-4-methoxyphenoxy)-2-methoxyphenyl)-1-methyl-5-oxo-pyrrolidine-2-carboxamide], the IC50 was 50 to 300 nM.
Turning to `COc1ccc(OC2CCC(C)(C)CC2)cc1NC(=O)C1CCC(=O)N1C` (stereo not shown) [Compound 296, N-(5-((4,4-Dimethylcyclohexyl)oxy)-2-methoxyphenyl)-1-methyl-5-oxo-pyrrolidine-2-carboxamide], the IC50 was under 50 nM.
The value for `COc1ccc(Sc2ccc(F)c(F)c2)cc1NC(=O)C1CCC(=O)N1C` (stereo not shown) [Compound 297, N-(5-((3,4-Difluorophenyl)thio)-2-methoxyphenyl)-1-methyl-5-oxopyrrolidine-2-carboxamide] was under 50 nM.
The value for `COc1ccc(Sc2ccc(F)c(F)c2)cc1NC(=O)C1CCC(=O)N1` (stereo not shown) [Compound 298, N-(5-((3,4-Difluorophenyl)thio)-2-methoxyphenyl)-5-oxopyrrolidine-2-carboxamide] was under 50 nM; that for `COc1ccc(Oc2cccc(Br)c2)cc1NC(=O)C1CCC(=O)N1C` (stereo not shown) [Compound 299, N-(5-(3-Bromophenoxy)-2-methoxyphenyl)-1-methyl-5-oxopyrrolidine-2-carboxamide] was under 50 nM; that for `COc1ccc(Oc2ccc(OC(F)(F)F)cc2)cc1NC(=O)C1CCC(=O)N1` (stereo not shown) [Compound 300, N-(2-Methoxy-5-(4-(trifluoromethoxy)phenoxy)phenyl)-5-oxopyrrolidine-2-carboxamide] was under 50 nM.
The value for `COc1ccc(Oc2ccc(OC(C)C)cc2)cc1NC(=O)C1CCC(=O)N1` (stereo not shown) [Compound 301, N-(5-(4-Isopropoxyphenoxy)-2-methoxyphenyl)-5-oxopyrrolidine-2-carboxamide] was 301 to 2000 nM; that for `COc1ccc(OCC2CC(F)(F)C2)cc1NC(=O)C1CCC(=O)N1C` (stereo not shown) [Compound 302, N-(5-((3,3-Difluorocyclobutyl)methoxy)-2-methoxyphenyl)-1-methyl-5-oxopyrrolidine-2-carboxamide] was 301 to 2000 nM.
`CN1C(=O)CCC1C(=O)Nc1cc(Oc2ccc(F)cc2)cc(C(F)(F)F)c1` (stereo not shown) [Compound 303, N-(3-(4-Fluorophenoxy)-5-(trifluoromethyl)phenyl)-1-methyl-5-oxopyrrolidine-2-carboxamide]: the IC50 fell in the range of 301 to 2000 nM.
The value for `COc1ccc(Oc2ccc(Cl)cc2)cc1NC(=O)C1CCC(=O)N1C` (stereo not shown) [Compound 304, N-(5-(4-Chlorophenoxy)-2-methoxyphenyl)-1-methyl-5-oxopyrrolidine-2-carboxamide] was under 50 nM; that for `COc1ccc(Oc2ccc(Cl)c(F)c2)cc1NC(=O)C1CCC(=O)N1C` (stereo not shown) [Compound 305, N-(5-(4-Chloro-3-fluorophenoxy)-2-methoxyphenyl)-1-methyl-5-oxopyrrolidine-2-carboxamide] was under 50 nM; that for `CN1C(=O)CCC1C(=O)Nc1cc(C#N)cc(Oc2ccc(C(F)(F)F)cc2)c1` (stereo not shown) [Compound 306, N-(3-Cyano-5-(4-(trifluoromethyl)phenoxy)phenyl)-1-methyl-5-oxopyrrolidine-2-carboxamide] was 301 to 2000 nM.
The value for `COc1ccc(Oc2ccc(Cl)cc2)cc1NC(=O)[C@@H]1CCC(=O)N1C` [Compound 307, (S)—N-(5-(4-Chlorophenoxy)-2-methoxyphenyl)-1-methyl-5-oxopyrrolidine-2-carboxamide] was under 50 nM; that for `COc1ccc(Oc2ccc(Cl)cc2)cc1NC(=O)[C@H]1CCC(=O)N1C` [Compound 308, (R)—N-(5-(4-Chlorophenoxy)-2-methoxyphenyl)-1-methyl-5-oxopyrrolidine-2-carboxamide] was under 50 nM.
The value for `COc1ccc(Oc2ccc(C#N)c(Cl)c2)cc1NC(=O)C1CCC(=O)N1C` (stereo not shown) [Compound 309, N-(5-(3-Chloro-4-cyanophenoxy)-2-methoxyphenyl)-1-methyl-5-oxopyrrolidine-2-carboxamide] was 50 to 300 nM; that for `COc1ccc(Oc2ccc(C#N)c(Cl)c2)cc1NC(=O)[C@@H]1CCC(=O)N1C` [Compound 310, (S)—N-(5-(3-Chloro-4-cyanophenoxy)-2-methoxyphenyl)-1-methyl-5-oxo-pyrrolidine-2-carboxamide] was 50 to 300 nM; that for `COc1ccc(Oc2ccc(C(F)(F)F)cc2)cc1NC(=O)[C@@H]1CCCN1S(C)(=O)=O` [Compound 311, (S)—N-(2-Methoxy-5-(4-(trifluoromethyl)phenoxy)phenyl)-1-(methylsulfonyl)-pyrrolidine-2-carboxamide] was 301 to 2000 nM.
Regarding `COc1ccc(Oc2ccc(Cl)c(F)c2)cc1NC(=O)[C@@H]1CCC(=O)N1C` [Compound 312, (S)—N-(5-(4-Chloro-3-fluorophenoxy)-2-methoxyphenyl)-1-methyl-5-oxo-pyrrolidine-2-carboxamide], the IC50 is under 50 nM.
For the compound `COc1ccc(Oc2ccc(C(F)F)cc2)cc1NC(=O)[C@@H]1CCC(=O)N1C` [Compound 313, (S)—N-(5-(4-(Difluoromethyl)phenoxy)-2-methoxyphenyl)-1-methyl-5-oxo-pyrrolidine-2-carboxamide], the IC50 is under 50 nM.

For the origin of these results see US20240246908A1 (ORION CORPORATION, priority 2021, published 2024).
